Among the test systems are SK-MEL-5 melanoma; SNB-75 CNS; UO-31 renal; HS 578T breast; T-47D breast; 786-0 renal; HOP-92 NSCLC; NCI-H460 lung; OVCAR-5 ovarian; DU-145 prostate.
What all share (experiment): NCI-60 cell line screen, 48 h

“And” between values parts separate entries of the source, which are not always exact repeats. Equal values may be shown once.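 Five compound concentrations were applied to cells in 96-well plates for 48 hours; endpoints were derived by simple linear interpolation of the resulting dose-response curve. Here, GI50 denotes the concentration required for 50% inhibition of growth. TGI: concentration producing complete growth inhibition.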

As for `C[CH2][Sn]1([CH2]C)[O]C2C(O)OC(CO)C(O)C2[O]1` (stereo not given), the GI50 was 34.1 µM with SK-MEL-5 melanoma; > 100 µM with SNB-75 CNS; 68.7 µM in the assay with UO-31 renal; 25.9 µM in the assay with HS 578T breast; 14.6 µM in the assay with T-47D breast; 23 µM with 786-0 renal. Moreover, the GI50 in the assay on HOP-92 NSCLC was 20 µM; in the assay with NCI-H460 lung, > 100 µM; in the assay on OVCAR-5 ovarian it was 20.8 µM; with DU-145 prostate it was 86.8 µM. The TGI was > 100 µM with SK-MEL-5 melanoma; > 100 µM in the assay on SNB-75 CNS; > 100 µM with UO-31 renal; > 100 µM with HS 578T breast; 32.3 µM with T-47D breast; 68.1 µM with 786-0 renal. Moreover, the TGI in the assay with HOP-92 NSCLC was 47 µM; in the assay with NCI-H460 lung, > 100 µM; with OVCAR-5 ovarian, 47.3 µM; in the assay with DU-145 prostate, > 100 µM.

In the case of `NC(=O)Cc1ccccc1Oc1nccc(-c2c(-c3ccc(F)cc3)ncn2C2CCNCC2)n1`, the GI50 is > 25 µM in the assay with SK-MEL-5 melanoma; > 19.1 µM with SNB-75 CNS; > 25 µM in the assay on UO-31 renal; > 9.24 µM in the assay on HS 578T breast; > 25 µM in the assay on T-47D breast; > 25 µM in the assay on 786-0 renal. For the same molecule, the GI50 with HOP-92 NSCLC, in the assay with NCI-H460 lung, in the assay with OVCAR-5 ovarian and with DU-145 prostate was > 25 µM each time. For the same molecule, the TGI in the assay on SK-MEL-5 melanoma, with SNB-75 CNS, in the assay on UO-31 renal, with HS 578T breast, in the assay on T-47D breast and in the assay on 786-0 renal was > 25 µM each time. In addition, the TGI in the assay with HOP-92 NSCLC, with NCI-H460 lung, with OVCAR-5 ovarian and in the assay with DU-145 prostate was > 25 µM in each case.

`Clc1cccc(Cn2cc(Cc3cn(Cc4cccc(Cl)c4)c4ccccc34)c3ccccc32)c1`: the GI50 was > 100 µM with SK-MEL-5 melanoma; > 100 µM in the assay on SNB-75 CNS; 10.5 µM in the assay on UO-31 renal; > 100 µM in the assay on HS 578T breast; > 100 µM with T-47D breast; > 100 µM with 786-0 renal. Also, the GI50 with HOP-92 NSCLC was 22.5 µM; in the assay with NCI-H460 lung, 46.5 µM; with OVCAR-5 ovarian, 47.1 µM; in the assay with DU-145 prostate, > 100 µM. The TGI in the assay on SK-MEL-5 melanoma, in the assay with SNB-75 CNS, in the assay with UO-31 renal, in the assay with HS 578T breast, in the assay on T-47D breast and in the assay with 786-0 renal was > 100 µM throughout. The TGI with HOP-92 NSCLC, with NCI-H460 lung, with OVCAR-5 ovarian and with DU-145 prostate was > 100 µM each time.

For the molecule `O=S(=O)(c1ccc2c(c1)C(=NO)c1cc(S(=O)(=O)N3CCCCC3)ccc1-2)N1CCCCC1`, the GI50 in the assay on SK-MEL-5 melanoma is > 1 µM and 0.174 µM; with SNB-75 CNS, 0.147 µM and 0.0587 µM; in the assay on UO-31 renal it was 0.16 µM and 0.0467 µM; with HS 578T breast it was 0.24 µM and 0.198 µM; in the assay with T-47D breast, 0.186 µM and 0.18 µM; with 786-0 renal it was 0.212 µM and 0.186 µM. For the same molecule, the GI50 with HOP-92 NSCLC was > 1 µM and 0.22 µM; in the assay with NCI-H460 lung, 0.214 µM and 0.106 µM; in the assay with OVCAR-5 ovarian it was 0.153 µM and 0.151 µM; in the assay on DU-145 prostate, 0.206 µM and 0.154 µM. Also, the TGI with SK-MEL-5 melanoma is > 1 µM and 0.314 µM; in the assay on SNB-75 CNS, 0.287 µM and 0.151 µM; with UO-31 renal, 0.319 µM and 0.11 µM; with HS 578T breast, 0.772 µM and 0.48 µM; in the assay on T-47D breast, 0.423 µM and 0.384 µM; in the assay with 786-0 renal, 0.499 µM and 0.342 µM. The TGI with HOP-92 NSCLC was > 1 µM and 0.524 µM; in the assay with NCI-H460 lung, 0.465 µM and 0.268 µM; in the assay with OVCAR-5 ovarian, 0.315 µM and 0.293 µM; with DU-145 prostate it was 0.397 µM and 0.296 µM.

In the case of `Oc1c(Cl)cc(C(c2cc(Cl)c(O)c(Cl)c2)C(c2cc(Cl)c(O)c(Cl)c2)c2cc(Cl)c(O)c(Cl)c2)cc1Cl`, the GI50 in the assay with SK-MEL-5 melanoma is 2.89 µM; with SNB-75 CNS, 3.08 µM; in the assay on UO-31 renal, 0.573 µM; in the assay on HS 578T breast, 4.54 µM; in the assay on T-47D breast it was 1.74 µM; in the assay on 786-0 renal, 3.49 µM. The GI50 in the assay with HOP-92 NSCLC was 3.44 µM; with NCI-H460 lung it was 2.59 µM; in the assay with OVCAR-5 ovarian, 12.3 µM; in the assay with DU-145 prostate, 3.63 µM. Further, the TGI with SK-MEL-5 melanoma was 14.8 µM; in the assay on SNB-75 CNS, 7.87 µM; in the assay on UO-31 renal it was 8.04 µM; in the assay with HS 578T breast it was 57.4 µM; with T-47D breast it was 12.5 µM; in the assay on 786-0 renal, 16.7 µM. In addition, the TGI turned out to be 13.6 µM in the assay with HOP-92 NSCLC, 18.7 µM with NCI-H460 lung, 24.8 µM with OVCAR-5 ovarian and 14.1 µM in the assay on DU-145 prostate.

`CCN(CC)CC(O)CNc1ccc(NCC(O)CCl)c2c1C(=O)c1ccccc1C2=O` (stereo not given): the TGI in the assay with SK-MEL-5 melanoma came to 22.1 µM; in the assay on SNB-75 CNS it was 24.9 µM; in the assay on UO-31 renal, 17.9 µM; with HS 578T breast, 31 µM; with T-47D breast it was 38.7 µM; in the assay with 786-0 renal it was 15.9 µM. Moreover, the TGI in the assay on HOP-92 NSCLC amounted to 18.2 µM; in the assay with NCI-H460 lung, 12.5 µM; in the assay on OVCAR-5 ovarian, 29.2 µM; in the assay with DU-145 prostate it was 29.3 µM.

On to `COc1cc2c3c(n(CCCN=[N+]=[N-])c(=O)c2cc1OC)-c1ccc(N)cc1C3=O`, for which the GI50 is 0.0784 µM with SK-MEL-5 melanoma; 0.126 µM in the assay on SNB-75 CNS; 0.146 µM in the assay on UO-31 renal; 1.53 µM in the assay with HS 578T breast; 0.0988 µM in the assay with T-47D breast; 0.16 µM with 786-0 renal. Also, the GI50 is 0.163 µM in the assay with HOP-92 NSCLC, 0.0265 µM in the assay on NCI-H460 lung, 0.633 µM in the assay with OVCAR-5 ovarian and 0.117 µM in the assay with DU-145 prostate. Besides, the TGI with SK-MEL-5 melanoma was 0.223 µM; in the assay with SNB-75 CNS, 0.69 µM; with UO-31 renal, 0.803 µM; in the assay with HS 578T breast it was > 24.9 µM; in the assay with T-47D breast, 0.76 µM; in the assay on 786-0 renal it was 0.431 µM. The TGI came out at 0.86 µM in the assay on HOP-92 NSCLC, 0.139 µM with NCI-H460 lung, 1.33 µM in the assay on OVCAR-5 ovarian and 1.42 µM in the assay with DU-145 prostate.

Consider `COC(=O)C1=C2C3=C(C(=O)c4ccccc4C3=O)N(Cc3ccccc3)C2(OC(C)=O)C=CC1=O` (stereo not given), for which the GI50 in the assay on SK-MEL-5 melanoma is 10.2 µM; in the assay with SNB-75 CNS, 40.3 µM; with UO-31 renal, 18.2 µM; with HS 578T breast, 22 µM; in the assay on T-47D breast, 66.4 µM; in the assay with 786-0 renal, 2.28 µM. Besides, the GI50 with HOP-92 NSCLC is 0.85 µM; in the assay with NCI-H460 lung it was 5.93 µM; in the assay with OVCAR-5 ovarian it was 18.4 µM; with DU-145 prostate it was 14.8 µM. The TGI in the assay on SK-MEL-5 melanoma was 24.9 µM; in the assay on SNB-75 CNS it was > 100 µM; in the assay on UO-31 renal, > 100 µM; in the assay with HS 578T breast, 71.3 µM; in the assay with T-47D breast it was > 100 µM; with 786-0 renal, 10.1 µM. The TGI in the assay on HOP-92 NSCLC is 19.7 µM; with NCI-H460 lung it was > 100 µM; in the assay on OVCAR-5 ovarian, > 100 µM; with DU-145 prostate, 61.9 µM.

Source of the values: PubChem BioAssay (NCI).
